One assay concerns the target T1, human GPR40 (Homo sapiens, UniProt O14842).
T1 construct: expressed in transfected cells; host or cells: CHO cells
The assay can be described thus: Cell-based aequorin assay. The settings on record: CHO cells stably transfected with GPR40 and aequorin; 0.01% HSA; aequorin luminescence; read-out: Relative EC50. Here is the method:
Cell-based aequorin assays were employed to characterize the modulatory activity of compounds on the GPR40 signaling pathway. In an exemplary assay, CHO cells were stably transfected with both GPR40 and Aequorin (Euroscreen). Cells were detached from the tissue culture dish with 2 mL of trypsin (0.25% (w/v)). Trypsinization was halted with 28 mL of Hanks Buffered Salt Solution containing 20 mM Hepes (H/HBSS) and 0.01% fatty acid-free human serum albumin (HSA). Coelantrazine is added to 1 ug/mL, and the cells were incubated for 2 hours at room temperature. Compounds were dissolved in DMSO for preparation of 10 mM stock solutions. Compounds were diluted in H/HBSS containing 0.01% HSA. Serial dilutions of the test compounds were prepared to determine dose response.
Aequorin luminescence measurements were made using an EG&G Berthold 96-well luminometer, and the response was measured over a 20 second interval after cells and compounds were mixed. The maximum relative light units was plotted to determine dose response. The EC50 (effective concentration to reach 50% maximal response) was determined from the dose response plot.
Table 1 presents representative data (EC50 values) obtained for exemplary compounds of the invention for the relative activation of human GPR40. […]
T1 sequence (O14842 whole entry): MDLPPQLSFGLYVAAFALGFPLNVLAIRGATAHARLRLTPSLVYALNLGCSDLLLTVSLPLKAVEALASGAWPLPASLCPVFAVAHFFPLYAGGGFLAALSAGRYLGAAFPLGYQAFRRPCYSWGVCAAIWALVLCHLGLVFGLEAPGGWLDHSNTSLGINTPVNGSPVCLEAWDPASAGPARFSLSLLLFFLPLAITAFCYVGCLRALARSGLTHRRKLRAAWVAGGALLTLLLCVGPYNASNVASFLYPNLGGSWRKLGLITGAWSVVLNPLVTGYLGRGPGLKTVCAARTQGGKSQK
For orientation: EC50 means the midpoint of the concentration-response curve. On to `CC#C[C@@H](CC(=O)O)c1ccc(OC2CCc3cc(-c4cccs4)ccc32)cc1` (stereo partly drawn) [Example 4, (3S)-3-[4-(5-Thiophen-2-yl-indan-1-yloxy)-phenyl]-hex-4-ynoic acid], for which the concentration for a half-maximal effect (EC50) lay in the range of 10 to 100 nM. The same measure, in the same setting: the figure for `CC#C[C@@H](CC(=O)O)c1ccc(OC2CCc3c(-c4cccc(OCC)c4)cccc32)cc1` (stereo partly drawn) [Example 9, (3S)-3-{4-[4-(3-Ethoxy-phenyl)-indan-1-yloxy]-phenyl}-hex-4-ynoic acid] is 1000 to 10000 nM.

For the compound `Cn1ccnc1[C@@H](CC(=O)O)c1ccc(OCc2ccc3c(c2)C(C)(C)CCC3)cc1` [Example 86, (S)-3-(4-((8,8-Dimethyl-5,6,7,8-tetrahydronaphthalen-2-yl)methoxy)phenyl)-3-(1-methyl-1H-imidazol-2-yl)propanoic acid], the concentration for a half-maximal effect (EC50) was 100 to 1000 nM. Regarding `C[C@H](Oc1ccc([C@H](CC(=O)O)c2nccn2C)cc1)c1ccc2c(c1)C(C)(C)CCC2(C)C` [Example 87, (3S)-3-(1-Methyl-1H-imidazol-2-yl)-3-(4-(1-(5,5,8,8-tetramethyl-5,6,7,8-tetrahydronaphthalen-2-yl)ethoxy)phenyl)propanoic acid], the EC50 is above 10000 nM.

For `CCC1(CC)CCC(C)(C)c2ccc(COc3ccc([C@H](CC(=O)O)c4nccn4C)cc3)cc21` [Example 88, (S)-3-(4-((8,8-Diethyl-5,5-dimethyl-5,6,7,8-tetrahydronaphthalen-2-yl)methoxy)phenyl)-3-(1-methyl-1H-imidazol-2-yl)propanoic acid], the EC50 is 100 to 1000 nM. Same read-out and setting: with `CC1(C)CCC(C)(C)c2cc(COc3ccc([C@H](CC(=O)O)c4ccc(F)cc4)cc3)ccc21` [Example 89, (S)-3-(4-Fluorophenyl)-3-(4-((5,5,8,8-tetramethyl-5,6,7,8-tetrahydronaphthalen-2-yl)methoxy)phenyl)propanoic acid] the figure was 100 to 1000 nM. The same measure, in the same setting: with `CC1(C)CCC(C)(C)c2cc(COc3ccc([C@@H](CC(=O)O)c4ccc(F)cc4)cc3)ccc21` [Example 90, (R)-3-(4-Fluorophenyl)-3-(4-((5,5,8,8-tetramethyl-5,6,7,8-tetrahydronaphthalen-2-yl)methoxy)phenyl)propanoic acid] the figure was 1000 to 10000 nM; with `Cn1ccnc1[C@@H](CC(=O)O)c1ccc(OCc2cc3c(cc2Br)C(C)(C)CCC3(C)C)cc1` [Example 91, (S)-3-(4-((3-Bromo-5,5,8,8-tetramethyl-5,6,7,8-tetrahydronaphthalen-2-yl)methoxy)phenyl)-3-(1-methyl-1H-imidazol-2-yl)propanoic acid], 100 to 1000 nM; with `Cn1ccnc1[C@@H](CC(=O)O)c1ccc(OCc2cc3c(cc2C2CC2)C(C)(C)CCC3(C)C)cc1` [Example 92, (S)-3-(4-((3-Cyclopopyl-5,5,8,8-tetramethyl-5,6,7,8-tetrahydronaphthalen-2-yl)methoxy)phenyl)-3-(1-methyl-1H-imidazol-2-yl)propanoic acid], above 10000 nM. On the same count and under the same terms, with `Cc1cc2c(cc1COc1ccc([C@H](CC(=O)O)c3nccn3C)cc1)C(C)(C)CCC2(C)C` [Example 93, (S)-3-(4-((3-Methyl-5,5,8,8-tetramethyl-5,6,7,8-tetrahydronaphthalen-2-yl)methoxy)phenyl)-3-(1-methyl-1H-imidazol-2-yl)propanoic acid] the figure was 100 to 1000 nM; with `CCc1cc2c(cc1COc1ccc([C@H](CC(=O)O)c3nccn3C)cc1)C(C)(C)CCC2(C)C` [Example 94, (S)-3-(4-((3-Ethyl-5,5,8,8-tetramethyl-5,6,7,8-tetrahydronaphthalen-2-yl)methoxy)phenyl)-3-(1-methyl-1H-imidazol-2-yl)propanoic acid], 100 to 1000 nM.

The test system of the next assay is islet cells. The assay can be described thus: Insulin secretion assay, human islet cells. In kind it is cell-based. To be noted: KRBH with 11.2 mM glucose, insulin by SPA, read-out: EC50, stimulation of insulin secretion from islet cells. Here is the method:
Human islets were isolated from cadaveric donors. Islets were treated with trypsin (0.25% (w/v) and cells were seeded in 96-well plates containing 3,000 cells per well. Cells were cultured in Roswell Park Memorial Institute (RMPI) media containing 10% fetal bovine serum.
For determination of insulin secretion, media was removed from islet cells and replaced with Krebs-Ringer bicarbonate buffer containing 10 mM HEPES (KRBH) and 2 mM glucose. After one hour incubation, media was replaced with KRBH containing 11.2 mM glucose and test compounds. Insulin released into the medium from the islet cells was measured using scintillation proximity assay (SPA).
For `CC#C[C@@H](CC(=O)O)c1ccc(OC2CCc3cc(-c4cccs4)ccc32)cc1` (stereo partly drawn) [Example 4, (3S)-3-[4-(5-Thiophen-2-yl-indan-1-yloxy)-phenyl]-hex-4-ynoic acid], the half-maximal effective concentration (EC50) is below 1000 nM. Same read-out and setting: the figure for `CC#C[C@@H](CC(=O)O)c1ccc(OC2CCc3c(-c4cccc(OCC)c4)cccc32)cc1` (stereo partly drawn) [Example 9, (3S)-3-{4-[4-(3-Ethoxy-phenyl)-indan-1-yloxy]-phenyl}-hex-4-ynoic acid] is below 1000 nM.

Source of the values: patent US7582803B2 (Amgen Inc., priority 2005, dated 2009).
